This assay concerns the target T1, KdpD (sensor histidine kinase KdpD, KdpD^Sa) (Staphylococcus aureus, UniProt Q2FWH7).
T1 construct: USP domain, amino acids E225 to F383, MBP fusion [MBP-KdpD(USP)]
Briefly: DRaCALA with […]-c-di-AMP and purified MBP-KdpD(USP); cold nucleotide competition. It counts as binding.

Molecules are shown by their SMILES.

T1 sequence (Q2FWH7 225-383): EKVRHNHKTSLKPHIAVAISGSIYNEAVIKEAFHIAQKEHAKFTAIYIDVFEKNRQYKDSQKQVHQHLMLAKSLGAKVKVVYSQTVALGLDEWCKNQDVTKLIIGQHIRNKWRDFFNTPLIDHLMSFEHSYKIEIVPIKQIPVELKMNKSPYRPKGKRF

As for `Nc1ncnc2c1ncn2[C@@H]1O[C@@H]2COP(=O)(O)O[C@H]3[C@@H](O)[C@H](n4cnc5c(N)ncnc54)O[C@@H]3COP(=O)(O)O[C@H]2[C@H]1O` [c-di-AMP], the Kd (as a rule, the equilibrium constant for the complex coming apart) stood at 2000 ± 180 nM.

Source of the values: publication PMC4686210, “Binding of Cyclic Di-AMP to the Staphylococcus aureus Sensor Kinase KdpD Occurs via the Universal Stress Protein Domain and Downregulates the Expression of the Kdp Potassium Transporter” (Journal of Bacteriology, 2015).
